Assay results: patent US8252751B2, “Organic compounds” (Novartis AG, priority 2007, dated 2012)
Several values for one entry are separate records, joined by “and”; a condition that tells them apart may be missing. Equal entries are not always repeated. Where two headings read alike, the source gives them in different places.

Columns and labels:
Assay type in all cases: biochemical
human FAP = molecular target: T1, human FAP (Homo sapiens, UniProt Q12884); assay: FAP (fibroblast activation protein, alpha) IC50 assay, Z-Gly-Pro-AMC fluorescence intensity
T1 construct: human FAPa covering amino acid 27-760 excluding the cytoplasmic and transmebrane domains; made in house; host or cells: insect cells (baculovirus expression system)
T1 sequence (Q12884 27-760): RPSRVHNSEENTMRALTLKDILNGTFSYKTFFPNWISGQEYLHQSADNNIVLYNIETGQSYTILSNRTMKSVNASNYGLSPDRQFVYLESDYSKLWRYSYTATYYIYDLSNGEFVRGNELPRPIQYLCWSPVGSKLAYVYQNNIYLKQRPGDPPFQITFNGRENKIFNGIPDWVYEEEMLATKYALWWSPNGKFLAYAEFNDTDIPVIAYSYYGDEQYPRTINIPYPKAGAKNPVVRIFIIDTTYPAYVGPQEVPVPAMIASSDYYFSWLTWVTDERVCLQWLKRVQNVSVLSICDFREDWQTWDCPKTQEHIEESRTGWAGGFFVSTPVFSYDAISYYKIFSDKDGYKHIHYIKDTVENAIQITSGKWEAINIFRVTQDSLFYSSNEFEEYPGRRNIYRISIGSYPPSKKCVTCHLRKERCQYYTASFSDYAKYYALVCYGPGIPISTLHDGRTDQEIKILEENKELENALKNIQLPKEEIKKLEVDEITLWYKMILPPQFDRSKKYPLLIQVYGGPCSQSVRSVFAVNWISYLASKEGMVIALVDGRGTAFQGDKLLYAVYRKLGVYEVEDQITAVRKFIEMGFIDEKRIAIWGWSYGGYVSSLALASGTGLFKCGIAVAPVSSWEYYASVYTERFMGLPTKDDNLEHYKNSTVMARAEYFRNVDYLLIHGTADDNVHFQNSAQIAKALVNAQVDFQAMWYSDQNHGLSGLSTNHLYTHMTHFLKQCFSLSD
Description: (§1) For fluorescence intensity (FI) measurements with AMC as dye, an Ultra Evolution reader (TECAN, Maennedorf, Switzerland) was used. The instrument was equipped with a combination of a 350 nm (20 nm bandwidth) and a 500 nm (25 nm bandwidth) bandpath filter for fluorescence excitation and emission acquisition, respectively. To increase the signal:background ratio, an appropriate dichroic mirror was employed. All filters and the dichroic mirror were purchased from TECAN.
(§2) The data from the independent assay runs was averaged and plotted using program of Origin 7.5SR6 (OriginLab Corporation, Northampton, Mass., USA). Origin's built-in non-linear regression routine was used to fit the averaged data to the ‘logistics’ function y=A2+(A1−A2)/(1+(x/IC50)^p) (Equation 1) where y is the %-inhibition at the inhibitor concentration, x. A1 is the lowest inhibition value, i.e. 0%, and A2 the maximum inhibition value, i.e. 100%. The exponent, p, is the Hill coefficient. B. Determination of IC50 Values
(§3) For the determination of IC50 values, the assays were performed at room temperature in 384-well plates. All final assay volumes were 30 μl. Test compounds were dissolved in 90% (v/v) DMSO/water and diluted in water (containing 0.05% (w/v) CHAPS) to 3-times the desired assay concentration. For each assay, 10 μl water/CHAPS (±test compound) were added per well, followed by 10 μl protease solution (diluted with assay buffer; for final assay concentration cf. § Assay conditions). After 1 hour of incubation at room temperature, the reaction was started by addition of 10 μl substrate solution (for final concentrations cf. § Assay conditions). […] The effect of the compound on the enzymatic activity was obtained from the linear progress curves and determined from two readings, the first one taken directly after the addition of substrate (t=0 min) and the second one after 1 hour (t=60 min). The IC50 value was calculated from the plot of percentage of inhibition vs. inhibitor concentration using non-linear regression analysis software (XLfit, Vers. 4.0; ID Business Solution Ltd., Guildford, Surrey, UK). […]

[1] = molecular target: T2, endogenous human DPP-IV from plasma sample (Homo sapiens, UniProt P27487); assay: human plasma DPP-IV IC50 assay, (H-Ala-Pro)2-Rh110 fluorescence intensity; conditions: for IC50: 50% plasma
T2 construct: endogenous human DPP-IV from plasma sample, male donors; from tissue; host or cells: human blood plasma, male donors, diluted to 50% plasma content
T2 sequence (P27487 39-766 limits assumed): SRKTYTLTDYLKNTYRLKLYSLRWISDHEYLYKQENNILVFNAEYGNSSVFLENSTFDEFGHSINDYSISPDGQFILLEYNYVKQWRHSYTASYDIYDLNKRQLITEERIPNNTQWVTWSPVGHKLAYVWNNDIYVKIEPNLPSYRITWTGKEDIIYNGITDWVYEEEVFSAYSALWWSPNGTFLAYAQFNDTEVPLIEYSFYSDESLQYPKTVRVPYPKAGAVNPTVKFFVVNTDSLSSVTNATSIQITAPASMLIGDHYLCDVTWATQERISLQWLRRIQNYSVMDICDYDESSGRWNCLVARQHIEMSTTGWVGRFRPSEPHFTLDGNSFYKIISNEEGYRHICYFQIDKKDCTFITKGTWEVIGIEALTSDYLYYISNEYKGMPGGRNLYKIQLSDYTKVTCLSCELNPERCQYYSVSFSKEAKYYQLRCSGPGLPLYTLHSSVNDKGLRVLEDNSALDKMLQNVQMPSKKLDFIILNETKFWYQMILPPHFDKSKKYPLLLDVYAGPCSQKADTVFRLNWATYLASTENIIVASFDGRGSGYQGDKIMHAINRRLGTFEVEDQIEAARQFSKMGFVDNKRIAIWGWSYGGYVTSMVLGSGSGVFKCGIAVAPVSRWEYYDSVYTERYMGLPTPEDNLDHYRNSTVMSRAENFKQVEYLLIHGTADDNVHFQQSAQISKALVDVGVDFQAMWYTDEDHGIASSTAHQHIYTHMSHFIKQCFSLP
Description: FI measurements using a Rh110 dye were done with a Safire2 reader (TECAN, Maennedorf, Switzerland). The Safire2 is a monochomator-based instrument and wavelengths of 485 nm and 535 nm were taken for fluorescence excitation and emission acquisition, respectively. The bandwidths were set to 20 nm in both the excitation and the emission path.
as §2, with “Values […]” for “Values”
as §3

human DPP-8 = molecular target: T3, human DPP-8 (Homo sapiens, UniProt Q6V1X1); assay: DPP-8 (dipeptidyl-peptidase 8) IC50 assay, Gly-Pro-AMC fluorescence intensity
T3 construct: human DPP-8 covering amino acid 1-882; made in house; host or cells: insect cells (baculovirus expression system)
T3 sequence (Q6V1X1 17-898): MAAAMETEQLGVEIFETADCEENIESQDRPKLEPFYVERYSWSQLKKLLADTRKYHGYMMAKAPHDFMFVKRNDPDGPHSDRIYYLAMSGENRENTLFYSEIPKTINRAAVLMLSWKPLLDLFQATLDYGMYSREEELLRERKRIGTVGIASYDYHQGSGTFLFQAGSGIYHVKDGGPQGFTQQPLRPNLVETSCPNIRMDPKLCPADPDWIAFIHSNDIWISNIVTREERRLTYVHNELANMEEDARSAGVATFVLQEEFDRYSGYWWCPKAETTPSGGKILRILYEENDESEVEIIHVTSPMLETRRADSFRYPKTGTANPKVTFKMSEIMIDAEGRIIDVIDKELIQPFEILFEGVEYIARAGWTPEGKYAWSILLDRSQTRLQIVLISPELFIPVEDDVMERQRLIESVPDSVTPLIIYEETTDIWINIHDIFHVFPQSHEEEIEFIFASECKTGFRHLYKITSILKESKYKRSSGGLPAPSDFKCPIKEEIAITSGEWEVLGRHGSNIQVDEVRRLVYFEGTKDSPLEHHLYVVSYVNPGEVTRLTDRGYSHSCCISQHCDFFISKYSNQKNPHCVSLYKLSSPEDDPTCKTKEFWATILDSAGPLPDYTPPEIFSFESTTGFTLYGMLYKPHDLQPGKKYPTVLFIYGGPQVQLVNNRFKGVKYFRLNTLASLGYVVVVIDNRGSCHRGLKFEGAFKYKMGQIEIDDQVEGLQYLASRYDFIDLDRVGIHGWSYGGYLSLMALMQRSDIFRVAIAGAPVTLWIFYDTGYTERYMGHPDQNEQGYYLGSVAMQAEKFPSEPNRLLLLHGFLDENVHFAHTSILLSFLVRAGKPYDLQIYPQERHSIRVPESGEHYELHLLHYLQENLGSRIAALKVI
Description: as §1
as §2, with “Values […]” for “Values”
(§4) For the determination of IC50 values, the assays were performed at room temperature in 384-well plates. All final assay volumes were 30 μl. Test compounds were dissolved in 90% (v/v) DMSO/water and diluted in water (containing 0.05% (w/v) CHAPS) to 3-times the desired assay concentration. For each assay, 10 μl water/CHAPS (±test compound) were added per well, followed by 10 μl protease solution (diluted with assay buffer; for final assay concentration cf. § Assay conditions). After 1 hour of incubation at room temperature, the reaction was started by addition of 10 μl substrate solution (for final concentrations cf. § Assay conditions). The eleven final compound concentrations were either 0.9 nM, 3 nM, 9 nM, 30 nM, 90 nM, 300 nM, 900 nM, 3 μM, 9 μM, 30 μM and 90 μM or 3 nM, 10 nM, 30 nM, 100 nM, 300 nM, 1 μM, 3 μM, 10 μM, 30 μM, 100 μM and 300 μM. The effect of the compound on the enzymatic activity was obtained from the linear progress curves and determined from two readings, the first one taken directly after the addition of substrate (t=0 min) and the second one after 1 hour (t=60 min). The IC50 value was calculated from the plot of percentage of inhibition vs. inhibitor concentration using non-linear regression analysis software (XLfit, Vers. 4.0; ID Business Solution Ltd., Guildford, Surrey, UK).
(§5) 4.—DPP-8 (dipeptidyl-peptidase 8) enzyme: human DPP-8 covering amino acid 1-882; expressed in and purified from insect cells (baculovirus expression system) substrate: Gly-Pro-AMC, purchased from Bachem (www.bachem.com), catalogue number I-1225 enzyme concentration: 0.05 nM substrate concentration: 10 μM assay buffer: 25 mM Tris, pH 7.4, 140 mM NaCl, 10 mM KCl, 0.05% (w/v) CHAPS

human DPP-9 = molecular target: T4, human DPP-9 (Homo sapiens, UniProt Q86TI2); assay: DPP-9 (dipeptidyl-peptidase 9) IC50 assay, Gly-Pro-AMC fluorescence intensity
T4 construct: human DPP-9 covering amino acid 1-863; made in house; host or cells: Pichia pastoris
T4 sequence (Q86TI2 whole entry): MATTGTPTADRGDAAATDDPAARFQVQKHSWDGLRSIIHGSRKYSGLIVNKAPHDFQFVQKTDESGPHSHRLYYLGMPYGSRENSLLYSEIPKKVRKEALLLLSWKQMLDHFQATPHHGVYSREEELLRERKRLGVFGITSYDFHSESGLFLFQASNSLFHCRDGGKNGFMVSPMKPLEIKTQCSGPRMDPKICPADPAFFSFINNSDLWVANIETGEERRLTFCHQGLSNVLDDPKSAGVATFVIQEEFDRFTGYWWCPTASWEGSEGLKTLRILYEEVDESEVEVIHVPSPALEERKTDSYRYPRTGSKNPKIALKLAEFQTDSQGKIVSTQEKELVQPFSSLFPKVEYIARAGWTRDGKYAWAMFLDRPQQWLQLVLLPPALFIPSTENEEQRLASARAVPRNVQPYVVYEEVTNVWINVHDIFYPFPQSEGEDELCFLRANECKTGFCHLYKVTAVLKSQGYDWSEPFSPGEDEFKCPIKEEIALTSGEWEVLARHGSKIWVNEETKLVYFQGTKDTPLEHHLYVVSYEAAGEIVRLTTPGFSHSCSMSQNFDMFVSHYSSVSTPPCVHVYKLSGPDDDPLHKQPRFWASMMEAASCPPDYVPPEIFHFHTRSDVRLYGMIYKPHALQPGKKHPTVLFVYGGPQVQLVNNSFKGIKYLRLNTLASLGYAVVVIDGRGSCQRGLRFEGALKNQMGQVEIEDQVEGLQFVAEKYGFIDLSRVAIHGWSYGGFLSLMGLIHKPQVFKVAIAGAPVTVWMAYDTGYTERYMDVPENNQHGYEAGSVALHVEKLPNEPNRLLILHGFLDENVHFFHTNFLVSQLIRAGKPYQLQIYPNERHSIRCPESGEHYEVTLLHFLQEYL
Description: as §1
as §2, with “Values […]” for “Values”
as §4
5.—DPP-9 (dipeptidyl-peptidase 9) enzyme: human DPP-9 covering amino acid 1-863; expressed in and purified from Pichia pastoris substrate: Gly-Pro-AMC, purchased from Bachem (www.bachem.com), catalogue number I-1225 enzyme concentration: 1 nM substrate concentration: 10 μM assay buffer: 25 mM Tris, pH 7.4, 140 mM NaCl, 10 mM KCl, 0.05% (w/v) CHAPS

human PEP = molecular target: T5, human PEP (Homo sapiens, UniProt P48147); assay: PEP (prolyl-endopeptidase) IC50 assay, Z-Gly-Pro-AMC fluorescence intensity
T5 construct: human PEP covering amino acid 1-710; made in house; host or cells: Pichia pastoris
T5 sequence (P48147 1-710): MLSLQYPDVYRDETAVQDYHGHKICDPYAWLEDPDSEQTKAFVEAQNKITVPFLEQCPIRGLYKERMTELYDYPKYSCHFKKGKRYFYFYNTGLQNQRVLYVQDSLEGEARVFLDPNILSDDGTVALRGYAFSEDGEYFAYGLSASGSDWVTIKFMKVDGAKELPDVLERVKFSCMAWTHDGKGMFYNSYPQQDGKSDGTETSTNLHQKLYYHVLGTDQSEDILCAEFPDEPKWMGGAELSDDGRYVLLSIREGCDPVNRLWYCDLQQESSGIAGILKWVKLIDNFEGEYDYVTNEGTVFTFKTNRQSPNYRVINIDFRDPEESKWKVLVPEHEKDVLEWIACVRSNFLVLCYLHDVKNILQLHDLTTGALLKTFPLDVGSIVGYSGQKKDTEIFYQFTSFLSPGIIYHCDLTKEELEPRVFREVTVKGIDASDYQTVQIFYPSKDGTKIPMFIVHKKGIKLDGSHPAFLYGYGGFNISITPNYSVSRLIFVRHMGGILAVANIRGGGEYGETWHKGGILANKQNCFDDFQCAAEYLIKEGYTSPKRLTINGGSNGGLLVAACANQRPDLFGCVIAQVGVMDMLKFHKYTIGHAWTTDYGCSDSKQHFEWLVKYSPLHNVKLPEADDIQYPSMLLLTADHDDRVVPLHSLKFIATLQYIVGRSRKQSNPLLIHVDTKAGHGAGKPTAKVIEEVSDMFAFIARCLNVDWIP
Description: as §1
as §2, with “Values […]” for “Values”
as §3

human DPP-IV = molecular target: T6, human DPP-IV (Homo sapiens, UniProt P27487); assay: DPP-IV (dipeptidyl peptidase IV) IC50 assay, Gly-Pro-AMC fluorescence intensity
T6 construct: human DPP-IV covering amino acid 39-766; made in house; host or cells: insect cells (baculovirus expression system)
T6 sequence (P27487 39-766): as the sequence (P27487 39-766 limits assumed) above
Description: as §1
as §2, with “Values […]” for “Values”
as §4
as §5, with “2.—DPP-IV (dipeptidyl peptidase IV) enzyme:” for “4.—DPP-8 (dipeptidyl-peptidase 8) enzyme:”, “human DPP-IV” for “human DPP-8”, “acid 39-766;” for “acid 1-882;”, “concentration: 0.01” for “concentration: 0.05”

human DPP-2 = molecular target: T7, human DPP-2 (Homo sapiens, UniProt Q9UHL4); assay: DPP-2 (dipeptidyl peptidase 2) IC50 assay, Nle-Pro-AMC fluorescence intensity
T7 construct: human DPP-2 covering amino acid 30-492; made in house; host or cells: insect cells (baculovirus expression system)
Description: as §1
as §2, with “A1 is the lowest inhibition value, i.e. 0%, and A2 the maximum inhibition value, i.e. 100%. The exponent, p, is the Hill coefficient. B. Determination of IC50 Values” left out
For the determination of IC50 values, the assays were performed at room temperature in 384-well plates. […] The effect of the compound on the enzymatic activity was obtained from the linear progress curves and determined from two readings, the first one taken directly after the addition of substrate (t=0 min) and the second one after 1 hour (t=60 min). The IC50 value was calculated from the plot of percentage of inhibition vs. inhibitor concentration using non-linear regression analysis software (XLfit, Vers. 4.0; ID Business Solution Ltd., Guildford, Surrey, UK). […]

[2] = individual experiments 1-4, read-out: IC50 value
[3] = mean of 4 experiments, read-out: Mean IC50 value ± SD

Hill coefficient (human FAP; individual experiments 1-4): 1.3 and 0.8 (2×) and 0.7
IC50 (human FAP; [2]): 43 µM and 16 µM and 19 µM
IC50 (human FAP; [3]): 24 ± 13 µM
IC50 [1, 2]: 3 nM and 4 nM
IC50 [1, 3]: 4 ± 1 nM
Hill coefficient ([1]; individual experiments 1-4): 1.4 (2×) and 1.2 (2×)
potency at inhibiting DPP-8 enzyme (human DPP-8; compared with vildagliptin): less potent
Hill coefficient (human DPP-8; human DPP-8, individual experiments 1-4): 1.2 (3×) and 1.3
IC50 (human DPP-8; human DPP-8, individual experiments 1-4, read-out: IC50 value): 8.3 µM and 8 µM and 8.1 µM and 7.6 µM
IC50 (human DPP-8; human DPP-8, mean of 4 experiments, read-out: Mean IC50 value ± SD): 8 ± 0.3 µM
potency at inhibiting DPP-9 enzyme (human DPP-9; compared with vildagliptin): less potent
Hill coefficient (human DPP-9; human DPP-9, individual experiments 1-4): 1.0 (2×) and 0.9 (2×)
IC50 (human DPP-9; human DPP-9, individual experiments 1-4, read-out: IC50 value): 700 nM and 400 nM and 600 nM
IC50 (human DPP-9; human DPP-9, mean of 4 experiments, read-out: Mean IC50 value ± SD): 500 ± 200 nM
Hill coefficient (human PEP; individual experiments 1-4): 0.7 and 1.2 and 0.8 and 0.6
IC50 (human PEP; [2]): 52 µM and 15 µM and 18 µM and 14 µM
IC50 (human PEP; [3]): 25 ± 18 µM
potency at inhibiting the DPP-4 enzyme (human DPP-IV; compared with vildagliptin): equally potent to vildagliptin
Hill coefficient (human DPP-IV; human DPP-IV, individual experiments 1-4): 0.7 and 0.9 and 1.3 and 1.1
IC50 (human DPP-IV; human DPP-IV, individual experiments 1-4, read-out: IC50 value): 4 nM and 6 nM and 7 nM and 5 nM
IC50 (human DPP-IV; human DPP-IV, mean of 4 experiments, read-out: Mean IC50 value ± SD): 6 ± 1 nM
IC50 (human DPP-2; [2]): > 300 µM
IC50 (human DPP-2; [3]): > 90 µM
SMILES: N#C[C@@H]1CCCN1C(=O)CNC12CC3CC(C1)CC(O[C@@H]1O[C@H](C(=O)O)[C@@H](O)[C@H](O)[C@H]1O)(C3)C2 [NVP-BQS867-NX-2]
